Experimental data reported in ChEMBL document CHEMBL1150089, “Sodwanones G, H, and I, new cytotoxic triterpenes from a marine sponge” (J Nat Prod, 1995).

Legend:
Type in all cases: functional, cell-based
P388 = assay: Cytotoxicity against mouse P388 cells after 3 days; details: P388, 72 h
SK-MEL-28 = assay: Cytotoxicity against human SK-MEL-28 cells after 3 days; details: SK-MEL-28, 72 h
HT-29 = assay: Cytotoxicity against human HT-29 cells after 3 days; details: HT-29, 72 h
A549 = assay: Cytotoxicity against human A549 cells after 3 days; details: A549, 72 h

Compound | IC50 (P388) | IC50 (SK-MEL-28) | IC50 (HT-29) | IC50 (A549)
CC1=C(CC[C@@H]2[C@@]3(CC[C@@H]4OC(C)(C)C(=O)CC[C@]42C)CO3)[C@@]2(C)CCC(=O)C(C)(C)C2=C(O)C1=O [SODWANONE G] | 2 µM | 2 µM | 2 µM | 200 nM
CC(C)C(=O)CC[C@@]1(C)[C@H]2CC[C@H](C)[C@]1(CC[C@@]1(C)[C@@H](C)CC[C@@H]3OC(C)(C)[C@]4(O)CC[C@@]31O4)O2 [SODWANONE I] | 20 µM | 20 µM | 20 µM | 20000 nM
CC1=C(CC[C@@H]2[C@H](C)CC[C@@H]3OC(C)(C)C(=O)CC[C@]32C)[C@@]2(C)CC[C@@H](O)C(C)(C)[C@@H]2CC1=O [SODWANONE H] | 10.5 µM | 10.5 µM | 10.5 µM | 20 nM
